From patent US5804576A, “Derivatives of 5-androsten-17-ones and 5-androstan-17-ones” (Research Corporation Technologies, Inc., priority 1986, dated 1998)
Like-named read-outs stand apart in the source and are kept apart here.

Assays:
[1] = system: Epstein-Barr virus-induced transformation of human lymphocytes; conditions: cited from earlier work
[2] = system: mammalian glucose-6-phosphate dehydrogenase (G6PDH); conditions: cited from earlier work
[3] = system: 3H-thymidine incorporation in mouse epidermis; conditions: in vivo; cited from earlier work
mouse breast epithilum = conditions: in vivo; cited from earlier work
[4] = system: TPA (Tumor Promoter) Stimulation of Mouse Epidermal DNA; assay: Inhibition of TPA stimulation of mouse epidermal DNA synthesis (3H-thymidine incorporation), oral; type: in vivo, mouse (ICR male)
Description: Synthesis rate by orally administered steroids.
The inhibition of tumor promoter stimulation of mouse epidermal DNA synthesis rate by steroids may also contribute to cancer preventive activity. The following assay is used:
(§1) ICR male mice (7-9 weeks old) were shaved on the back 1-2 days before use. Only mice showing no hair regrowth were used. Animals were orally intubated with a particular steroid suspended by homogenization in sesame oil or with sesame oil alone (controls). One hour later TPA (10 μg in 0.2 ml of acetone) or acetone vehicle was applied topically to the shaved skin. Twenty hours later, mice were injected i.p. with 60 μCi of ^3 H-thymidine 20 minutes before sacrifice. The animals were killed by cervical dislocation and the residual hair was removed with a depilatory agent. Epidermal scrapings were prepared according to the procedures of Hennings et al. (Cancer Res. 28, 53, 1968), homogenized in distilled water at 4° C., and the macromolecules precipitated with 0.4N trichloroacetic acid (TCA). Following 6 washes with absolute ethanol at room temperature, the nucleic acids were hydrolyzed with 0.5N TCA at 70° C. for 5 minutes. The hydrolysate (0.2 ml aliquots) were counted in an Intertechnique scintillation counter and assayed for DNA by the diphenylamine reaction.
(§2) The data are expressed as counts per minute (cpm) of tritium per μg of DNA.
A similar oral dose-response experiment with compound 16 and DHEA was performed.
(§3) Both of the above tests, i.e., the inhibition of mammalian glucose-6-phosphate dehydrogenase (G6PDH) and the inhibition of tumor promoter (TPA) stimulation of ^3 H-thymidine incorporation in mouse epidermis are recognized as indicators of cancer prophylactic activity. The following Table compares the efficacy of representative compounds of the present invention in these two tests with that of DHEA:
(§4) Male ICR mice were orally intubated with steroid suspended in sesame oil (0.5 ml/mouse) at the indicated dose. Mice not receiving steroid were given sesame oil alone. One hour later mice received topical application of TPA and 20 hours later the rate of ^3 H-thymidine incorporation into the epidermis was determined as described in Table 4.
as §4, with “TPA,” for “TPA”

[5] = system: TPA stimulation in DNA synthesis rate (mouse epidermis); assay: Inhibition of TPA stimulation of mouse epidermal DNA synthesis, intraperitoneal; type: in vivo, mouse (ICR male); conditions: i.p. dose-response
Method: as §1, §2
Compound 2 or 3 in comparison with DHEA by Intraperitoneal Injection.
Steroids were suspended in sterile 95% saline--5% Emulphor and injected intraperitoneally. Otherwise conditions were the same as when steroids were orally administered.

[6] = target: T1, purified bovine adrenal G6PDH (Bos taurus, UniProt F1MMK2); assay: Inhibition of purified bovine adrenal G6PDH; type: biochemical; conditions: read-out: Percent Inhibition (G6PDH); for inhibition at 0.1 µM: Conc. 0.1 μm; for inhibition at 1 µM: Conc. 1 μm; for inhibition at 10 µM: Conc. 10 μm
T1 construct: full-length, wild type, no tag
Description: The compounds listed below are screened as inhibitors of purified bovine adrenal G6PDH activity as one predictor of cancer preventive action. The assay for testing the inhibition of purified bovine adrenal G6PDH is according to the procedure by Oertel, G. W. and Rebelein, I. in Biochem. Biophys. Acta, 184, 459-460 (1969). The results are given below in Table I:
as §3, with “DHEA: […]” for “DHEA:”

[7] = Anti-obesity test (body weight, food consumption); type: in vivo, mouse (male A/J); conditions: n = 5
Method: Male A/J mice (5 weeks old) were obtained from the Jackson Laboratory and were housed in polycarbonate cages (5 mice/cage) in animal quarters maintained at 24°±1° C. with 12 hours of light and 12 hours of darkness each day. One week after arrival, the mice were placed on a chow diet containing varying concentrations of DHEA or other steroid. Animals were weighed weekly; food consumption was determined weekly by subtracting the amount of food remaining in the cage from the amount added.
Male A/J (5 weeks old) were obtained from the Jackson Laboratory and were housed in polycarbonate cages (5 mice/cage) in animal quarters maintained at 24°±1° C. with 12 hours of light and 12 hours of darkness each day. One week after arrival, the mice were placed on a diet containing either DHEA, 19, or without steroid. Animals were weighed weekly. The concentration of DHEA or 19 used in the food was 0.54%.
Male A/J mice (5 weeks old) were obtained from the Jackson Laboratory and were housed in polycarbonate cages (5 mice/cage) in animal quarters maintained at 24°±1° C. with 12 hours of light and 12 hours of darkness each day. One week after arrival, the mice were placed on a show diet containing DHEA, 16, or 21 at 0.36%. Animals were weighed weekly.

rat uterus = assay: Uterotrophic test, subcutaneous (Compound 2 vs. DHEA); type: in vivo; conditions: for Mean Uterine Weight: n = 4 or 5
Method: Twenty-two day old rats were obtained from Charles River Laboratories. Animals were used at 29 days of age. Test steroids were suspended by homogenization in sesame oil. Rats were orally intubated at 1-2 P.M. for 3 days with a test steroid in sesame oil or with sesame oil alone (control). On the 4th day the animals were killed and the uteri were removed and weighed.
Compound 2 vs. DHEA. Compounds Administered by Subcutaneous Injection
Steroids were dissolved in 2 ml ethanol and brought up to 5 ml volume with propylene glycol. Concentrations were such that 1 μl/gm body weight delivered the indicated dose.

T1 sequence (F1MMK2 31-70): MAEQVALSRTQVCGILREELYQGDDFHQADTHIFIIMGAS
T1 sequence (F1MMK2 101-575): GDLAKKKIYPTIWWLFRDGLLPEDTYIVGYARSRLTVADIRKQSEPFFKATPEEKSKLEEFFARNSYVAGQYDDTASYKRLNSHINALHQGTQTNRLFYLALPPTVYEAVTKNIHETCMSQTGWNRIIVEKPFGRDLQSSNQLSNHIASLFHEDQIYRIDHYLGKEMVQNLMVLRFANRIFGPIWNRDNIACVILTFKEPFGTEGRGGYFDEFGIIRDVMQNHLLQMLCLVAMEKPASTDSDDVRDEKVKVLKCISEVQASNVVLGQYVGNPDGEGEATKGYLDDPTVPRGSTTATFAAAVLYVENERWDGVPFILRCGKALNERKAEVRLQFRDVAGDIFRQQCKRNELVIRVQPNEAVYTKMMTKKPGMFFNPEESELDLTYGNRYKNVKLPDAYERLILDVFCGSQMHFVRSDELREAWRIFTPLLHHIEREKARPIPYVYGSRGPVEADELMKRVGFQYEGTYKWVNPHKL

Row | Structure (SMILES) | blocking the TPA stimulation in DNA synthesis rate, compared with DHEA (in words) [5] | inhibition at 0.1 µM [6] | inhibition at 1 µM [6] | inhibition at 10 µM [6] | mean weekly weight ([7]; 0.35% of diet, week 0) | mean weekly weight ([7]; 0.35% of diet, week 1) | mean weekly weight ([7]; 0.35% of diet, week 2) | mean weekly weight ([7]; 0.35% of diet, week 3) | mean weekly weight ([7]; 0.35% of diet, week 4) | mean weekly weight ([7]; 0.35% of diet, week 5) | mean weekly weight ([7]; 0.7% of diet, week 0) | mean weekly weight ([7]; 0.7% of diet, week 1) | mean weekly weight ([7]; 0.7% of diet, week 2) | mean weekly weight ([7]; 0.7% of diet, week 3) | mean weekly weight ([7]; 0.7% of diet, week 4) | mean weekly weight ([7]; 0.7% of diet, week 5) | other results
1 | C[C@]12CC[C@H](O)C[C@@H]1CC[C@@H]1[C@@H]2CC[C@]2(C)C(=O)[C@H](Br)C[C@@H]12 [16α-bromo-epiandrosterone, 3β-hydroxy-16α-bromo-5α-androstan-17-one] |  |  |  |  |  |  |  |  |  |  |  |  |  |  |  |  | inhibition of Epstein-Barr virus-induced transformation (in words) [1]: inhibitors of Epstein-Barr virus-induced transformation of human lymphocytes; inhibition of mammalian G6PDH (in words) [2]: more potent inhibitor of mammalian G6PDH than DHEA; inhibition of mammalian G6PDH (in words) ([2]; listed as 16α-Br-epiandrosterone): more active than DHEA in inhibiting G6PDH; 3H-thymidine incorporation in mouse epidermis (in words) [3]: more active than DHEA; rate of [3H] thymidine incorporation into breast epithelium (in words) (mouse breast epithilum): more active than DHEA
2 | C[C@]12CCCC[C@@H]1CC[C@@H]1[C@@H]2CC[C@]2(C)C(=O)CC[C@@H]12 [Compound 3] | more active in blocking the TPA stimulation in DNA synthesis rate | 10% | 69% | 80% | 21.8 ± 2.2 grams | 22.6 ± 1.8 grams | 23.6 ± 1.8 grams | 24.8 ± 1.8 grams | 24.6 ± 1.8 grams | 24.8 ± 1.9 grams | 21.6 ± 2.6 grams | 20.0 ± 1.9 grams | 21.3 ± 1.8 grams | 21.8 ± 1.6 grams | 22.0 ± 1.6 grams | 21.4 ± 1.1 grams | activity compared with DHEA, TPA stimulation (in words) ([4]; 200 mg/kg oral): somewhat more active than DHEA
3 | C[C@]12CC[C@H](O)C[C@@H]1CC[C@@H]1[C@@H]2CC[C@]2(C)C(=O)CC[C@@H]12 [Compound 2] | about as active as DHEA | 36% | 64% | 82% | 21.8 ± 1.6 grams | 21.8 ± 1.3 grams | 22.0 ± 1.2 grams | 22.8 ± 1.3 grams | 24.2 ± 1.1 grams | 24.4 ± 1.7 grams | 21.3 ± 1.8 grams | 20.6 ± 2.3 grams | 20.6 ± 0.5 grams | 20.8 ± 0.8 grams | 22.6 ± 0.6 grams | 22.4 ± 0.5 grams | blocking the TPA stimulation in DNA synthesis rate (in words) ([4]; 200 mg/kg or 100 mg/kg oral): not active at 200 mg/kg or 100 mg/kg; Mean Uterine Weight (rat uterus; 10 mg/kg s.c.): 151 ± 32 Mgs; Mean Uterine Weight (rat uterus; 60 mg/kg s.c.): 127 ± 32 Mgs; estrogenic activity (in words) (rat uterus; rat uterotrophic test, s.c.): Neither compounds 16 nor 2 are estrogenic; mean weekly weight ([7]; 0.35% of diet, week 6): 24.8 ± 1.5 grams; mean weekly weight ([7]; 0.35% of diet, week 7): 25.4 ± 1.7 grams; mean weekly weight ([7]; 0.7% of diet, week 6): 23.5 ± 0.9 grams; mean weekly weight ([7]; 0.7% of diet, week 7): 23.8 ± 0.8 grams
